Target: hERG (Homo sapiens, UniProt Q12809)
Assay: Patch clamp assay (hERG tail currents, whole-cell)

Sequence of hERG (Q12809 whole entry): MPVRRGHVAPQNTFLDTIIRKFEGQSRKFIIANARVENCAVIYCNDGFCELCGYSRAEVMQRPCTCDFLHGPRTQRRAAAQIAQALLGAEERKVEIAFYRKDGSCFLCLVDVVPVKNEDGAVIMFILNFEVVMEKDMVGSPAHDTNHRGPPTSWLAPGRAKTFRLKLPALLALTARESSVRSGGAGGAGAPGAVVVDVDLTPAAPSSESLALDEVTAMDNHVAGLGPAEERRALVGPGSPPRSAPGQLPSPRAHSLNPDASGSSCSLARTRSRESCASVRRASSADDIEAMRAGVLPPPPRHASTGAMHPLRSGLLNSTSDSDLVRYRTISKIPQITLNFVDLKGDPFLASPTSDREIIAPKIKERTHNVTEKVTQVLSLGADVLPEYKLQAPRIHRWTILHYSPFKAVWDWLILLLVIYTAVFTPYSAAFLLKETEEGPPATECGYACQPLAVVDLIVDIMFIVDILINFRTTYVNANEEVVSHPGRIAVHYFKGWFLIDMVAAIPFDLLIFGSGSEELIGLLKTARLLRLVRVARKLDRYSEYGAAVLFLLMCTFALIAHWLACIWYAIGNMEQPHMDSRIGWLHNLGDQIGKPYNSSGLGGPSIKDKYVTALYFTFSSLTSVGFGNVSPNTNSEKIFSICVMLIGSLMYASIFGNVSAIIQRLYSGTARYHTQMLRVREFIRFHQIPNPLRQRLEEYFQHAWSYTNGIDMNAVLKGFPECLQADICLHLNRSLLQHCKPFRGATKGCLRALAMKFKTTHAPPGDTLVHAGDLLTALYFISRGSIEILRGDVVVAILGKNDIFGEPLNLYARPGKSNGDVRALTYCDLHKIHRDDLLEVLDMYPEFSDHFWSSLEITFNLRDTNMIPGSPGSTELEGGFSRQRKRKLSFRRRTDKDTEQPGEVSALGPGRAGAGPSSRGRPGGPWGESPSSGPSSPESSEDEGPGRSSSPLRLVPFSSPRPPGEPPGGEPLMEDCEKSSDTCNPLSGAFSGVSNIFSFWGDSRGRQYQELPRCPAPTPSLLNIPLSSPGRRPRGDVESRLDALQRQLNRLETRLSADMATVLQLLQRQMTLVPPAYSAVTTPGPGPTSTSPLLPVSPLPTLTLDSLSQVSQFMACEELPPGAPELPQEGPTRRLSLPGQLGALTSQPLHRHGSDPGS

| Compound | hERG % Remaining (30 μM compound) | hERG % Remaining (10 μM compound) | further results |
| --- | --- | --- | --- |
| CCNS(=O)(=O)N[C@H]1CC[C@H](CN2CCC3(CC2)CN(c2ncnnc2Oc2ccc(F)cc2C(=O)N(CC(F)(F)F)C(C)C)C3)OC1 (stereo in doubt) [Example 193, 2-((5-(7-(((2R,5S)-5-((N-Ethylsulfamoyl)amino)tetrahydro-2H-pyran-2-yl)methyl)-2,7-diazaspiro[3.5]nonan-2-yl)-1,2,4-triazin-6-yl)oxy)-5-fluoro-N-isopropyl-N-(2,2,2-trifluoroethyl)benzamide] | +++ (≥66%) |  |  |
| CCN(C(=O)c1cc(F)ccc1Oc1cncnc1N1CC2(CCN(C[C@@H]3CC[C@@H](NC(=O)OC(C)(C)C)CO3)CC2)C1)C(C)C [Example 11, tert-Butyl ((3R,6S)-6-((2-(5-(2-(ethyl(isopropyl)carbamoyl)-4-fluorophenoxy)pyrimidin-4-yl)-2,7-diazaspiro[3.5]nonan-7-yl)methyl)tetrahydro-2H-pyran-3-yl)carbamate] | + (<33%) | + (<33%) |  |
| CCN(C(=O)c1cc(F)ccc1Oc1cncnc1N1CC2(CCN(C[C@@H]3CC[C@@H](NC(=O)NCC(F)(F)F)CO3)CC2)C1)C(C)C [Example 37, N-Ethyl-5-fluoro-N-isopropyl-2-((4-(7-(((2S,5R)-5-(3-(2,2,2-trifluoroethyl)ureido)tetrahydro-2H-pyran-2-yl)methyl)-2,7-diazaspiro[3.5]nonan-2-yl)pyrimidin-5-yl)oxy)benzamide] | + (<33%) | + (<33%) |  |
| CCN(C(=O)c1cc(F)ccc1Oc1cncnc1N1CC2(CCN(C[C@@H]3CC[C@@H](NS(=O)(=O)c4ccccn4)CO3)CC2)C1)C(C)C [Example 58, N-ethyl-5-fluoro-N-isopropyl-2-((4-(7-(((2S,5R)-5-(pyridine-2-sulfonamido)tetrahydro-2H-pyran-2-yl)methyl)-2,7-diazaspiro[3.5]nonan-2-yl)pyrimidin-5-yl)oxy)benzamide] | ++ (233% and ≤66%) | +++ (≥66%) |  |
| CCN(C(=O)c1cc(F)ccc1Oc1cncnc1N1CC2(CCN(C[C@@H]3CC[C@@H](NS(=O)(=O)c4ccccc4Cl)CO3)CC2)C1)C(C)C [Example 59, 2-((4-(7-(((2S,5R)-5-((2-Chlorophenyl)sulfonamido)tetrahydro-2H-pyran-2-yl)methyl)-2,7-diazaspiro[3.5]nonan-2-yl)pyrimidin-5-yl)oxy)-N-ethyl-5-fluoro-N-isopropylbenzamide] | + (<33%) | + (<33%) |  |
| CCN(C(=O)c1cc(F)ccc1Oc1cncnc1N1CC2(CCN(C[C@@H]3CC[C@@H](NS(=O)(=O)c4ccc(OC)cc4)CO3)CC2)C1)C(C)C [Example 62, N-Ethyl-5-fluoro-N-isopropyl-2-((4-(7-(((2S,5R)-5-((4-methoxyphenyl)sulfonamido)tetrahydro-2H-pyran-2-yl)methyl)-2,7-diazaspiro[3.5]nonan-2-yl)pyrimidin-5-yl)oxy)benzamide] | + (<33%) | + (<33%) |  |
| CCN(C(=O)c1cc(F)ccc1Oc1cncnc1N1CC2(CCN(C[C@@H]3CC[C@@H](NS(=O)(=O)c4cccnc4)CO3)CC2)C1)C(C)C [Example 63, N-Ethyl-5-fluoro-N-isopropyl-2-((4-(7-(((2S,5R)-5-(pyridine-3-sulfonamido)tetrahydro-2H-pyran-2-yl)methyl)-2,7-diazaspiro[3.5]nonan-2-yl)pyrimidin-5-yl)oxy)benzamide] | ++ (233% and ≤66%) | +++ (≥66%) |  |
| CCN(C(=O)c1cc(F)ccc1Oc1cncnc1N1CC2(CCN(C[C@@H]3CC[C@@H](NS(=O)(=O)N4CCOCC4)CO3)CC2)C1)C(C)C [Example 64, N-Ethyl-5-fluoro-N-isopropyl-2-((4-(7-(((2S,5R)-5-(morpholine-4-sulfonamido)tetrahydro-2H-pyran-2-yl)methyl)-2,7-diazaspiro[3.5]nonan-2-yl)pyrimidin-5-yl)oxy)benzamide] | ++ (233% and ≤66%) | +++ (≥66%) |  |
| CCN(C(=O)c1cc(F)ccc1Oc1cncnc1N1CC2(CCN(C[C@@H]3CC[C@@H](NS(=O)(=O)c4ccccc4OC)CO3)CC2)C1)C(C)C [Example 65, N-Ethyl-5-fluoro-N-isopropyl-2-((4-(7-(((2S,5R)-5-((2-methoxyphenyl)sulfonamido)tetrahydro-2H-pyran-2-yl)methyl)-2,7-diazaspiro[3.5]nonan-2-yl)pyrimidin-5-yl)oxy)benzamide] | + (<33%) | ++ (233% and ≤66%) |  |
| CCN(C(=O)c1cc(F)ccc1Oc1cncnc1N1CC2(CCN(C[C@@H]3CC[C@@H](NS(=O)(=O)c4cccc(OC)c4)CO3)CC2)C1)C(C)C [Example 66, N-Ethyl-5-fluoro-N-isopropyl-2-((4-(7-(((2S,5R)-5-((3-methoxyphenyl)sulfonamido)tetrahydro-2H-pyran-2-yl)methyl)-2,7-diazaspiro[3.5]nonan-2-yl)pyrimidin-5-yl)oxy)benzamide] | + (<33%) | + (<33%) |  |
| CCN(C(=O)c1cc(F)ccc1Oc1cncnc1N1CC2(CCN(C[C@@H]3CC[C@@H](NS(=O)(=O)N4CCC4)CO3)CC2)C1)C(C)C [Example 69, 2-((4-(7-(((2S,5R)-5-(Azetidine-1-sulfonamido)tetrahydro-2H-pyran-2-yl)methyl)-2,7-diazaspiro[3.5]nonan-2-yl)pyrimidin-5-yl)oxy)-N-ethyl-5-fluoro-N-isopropylbenzamide] | ++ (233% and ≤66%) | +++ (≥66%) |  |
| CCN(C(=O)c1cc(F)ccc1Oc1cncnc1N1CC2(CCN(C[C@@H]3CC[C@@H](NS(=O)(=O)NC)CO3)CC2)C1)C(C)C [Example 76, N-Ethyl-5-fluoro-N-isopropyl-2-((4-(7-(((2S,5R)-5-((N-methylsulfamoyl)amino)tetrahydro-2H-pyran-2-yl)methyl)-2,7-diazaspiro[3.5]nonan-2-yl)pyrimidin-5-yl)oxy)benzamide] | +++ (≥66%) | +++ (≥66%) |  |
| CC(C)N(C(=O)c1cc(F)ccc1Oc1cncnc1N1CC2(CCN(C[C@@H]3CC[C@@H](NS(=O)(=O)N4CCOCC4)CO3)CC2)C1)C(C)C [Example 78, 5-Fluoro-N,N-diisopropyl-2-((4-(7-(((2S,5R)-5-(morpholine-4-sulfonamido)tetrahydro-2H-pyran-2-yl)methyl)-2,7-diazaspiro[3.5]nonan-2-yl)pyrimidin-5-yl)oxy)benzamide] | +++ (≥66%) | +++ (≥66%) |  |
| CC(C)N(C(=O)c1cc(F)ccc1Oc1cncnc1N1CC2(CCN(C[C@@H]3CC[C@@H](NS(=O)(=O)N4CCC4)CO3)CC2)C1)C(C)C [Example 88, 2-((4-(7-(((2S,5R)-5-(Azetidine-1-sulfonamido)tetrahydro-2H-pyran-2-yl)methyl)-2,7-diazaspiro[3.5]nonan-2-yl)pyrimidin-5-yl)oxy)-5-fluoro-N,N-diisopropylbenzamide] | +++ (≥66%) |  |  |
| CC(C)N(C(=O)c1cc(F)ccc1Oc1cncnc1N1CC2(CCN(C[C@@H]3CC[C@@H](NS(=O)(=O)N(C)C(C)C)CO3)CC2)C1)C(C)C [Example 89, 5-Fluoro-N,N-diisopropyl-2-((4-(7-(((2S,5R)-5-((N-isopropyl-N-methylsulfamoyl)amino)tetrahydro-2H-pyran-2-yl)methyl)-2,7-diazaspiro[3.5]nonan-2-yl)pyrimidin-5-yl)oxy)benzamide] | ++ (233% and ≤66%) |  |  |
| CC(C)N(C(=O)c1cc(F)ccc1Oc1cncnc1N1CC2(CCN(C[C@@H]3CC[C@@H](NS(N)(=O)=O)CO3)CC2)C1)C(C)C [Example 90, 5-Fluoro-N,N-diisopropyl-2-((4-(7-(((2S,5R)-5-(sulfamoylamino)tetrahydro-2H-pyran-2-yl)methyl)-2,7-diazaspiro[3.5]nonan-2-yl)pyrimidin-5-yl)oxy)benzamide] | +++ (≥66%) | +++ (≥66%) |  |
| CC(C)N(C(=O)c1cc(F)ccc1Oc1cncnc1N1CC2(CCN(C[C@@H]3CC[C@@H](NS(=O)(=O)N(C)C)CO3)CC2)C1)C1CC1 [Example 93, N-Cyclopropyl-2-((4-(7-(((2S,5R)-5-((N,N-dimethylsulfamoyl)amino)tetrahydro-2H-pyran-2-yl)methyl)-2,7-diazaspiro[3.5]nonan-2-yl)pyrimidin-5-yl)oxy)-5-fluoro-N-isopropylbenzamide] | ++ (233% and ≤66%) | +++ (≥66%) | hERG % Remaining (1 μM compound): +++ (≥66%); hERG % Remaining (3 μM compound): +++ (≥66%); hERG % Remaining (100 μM compound): + (<33%) |
| CC(C)N(CC(F)F)C(=O)c1cc(F)ccc1Oc1cncnc1N1CC2(CCN(C[C@@H]3CC[C@@H](NS(=O)(=O)N4CCOCC4)CO3)CC2)C1 [Example 94, N-(2,2-Difluoroethyl)-5-fluoro-N-isopropyl-2-((4-(7-(((2S,5R)-5-(morpholine-4-sulfonamido)tetrahydro-2H-pyran-2-yl)methyl)-2,7-diazaspiro[3.5]nonan-2-yl)pyrimidin-5-yl)oxy)benzamide] | ++ (233% and ≤66%) | +++ (≥66%) |  |
| CC(C)N(CC(F)F)C(=O)c1cc(F)ccc1Oc1cncnc1N1CC2(CCN(C[C@@H]3CC[C@@H](NS(=O)(=O)N(C)C)CO3)CC2)C1 [Example 95, N-(2,2-Difluoroethyl)-2-((4-(7-(((2S,5R)-5-((N,N-dimethylsulfamoyl)amino)tetrahydro-2H-pyran-2-yl)methyl)-2,7-diazaspiro[3.5]nonan-2-yl)pyrimidin-5-yl)oxy)-5-fluoro-N-isopropylbenzamide] | ++ (233% and ≤66%) | +++ (≥66%) | hERG IC50 (μM) (hERG stably transfected HEK 293 cells): + (<25 PM) |

Source: patent publication US20240400564A1 (Syndax Pharmaceuticals, Inc, priority 2021, published 2024)
